Measurements as given in the supplement of paper PMC10011410.

Tests used:
U-2 OS [1] = assay: cell painting activity score (Mahalanobis distance from DMSO wells); higher = stronger morphological phenotype; details: 24 h
Procedure: (§1)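 Cell painting in U-2 OS cells (384-well, about 1,500 cells per well), compound exposure 24 h, usually six 2-fold concentrations from 20 to 0.625 uM (some compounds higher or lower). Relative cell count is the cell number per well relative to DMSO wells. Activity score is the Mahalanobis distance of the morphological profile from DMSO control wells. Mean of four technical replicate plates.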

U-2 OS [2] = assay: relative cell count vs DMSO (cell painting) (fraction of DMSO control); higher = more cells remaining (less cytotoxic); details: 24 h
Procedure: as §1

U-2 OS [3] = assay: AUC of culture confluence over time (live-cell imaging) (AUC (confluence % x time)); higher = more confluent culture (less growth inhibition)
Procedure: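 Live-cell Incucyte imaging of U-2 OS cells in F-12K medium. Compounds were tested mostly at 5, 10 and 20 uM, and cells were imaged every 4 h for up to 60 h. Value is the area under the curve of phase-contrast confluence over time.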

Row | Structure (SMILES) | cell painting activity score (U-2 OS [1]; 0.625 µM) | cell painting activity score (U-2 OS [1]; 1.25 µM) | cell painting activity score (U-2 OS [1]; 2.5 µM) | cell painting activity score (U-2 OS [1]; 5 µM) | cell painting activity score (U-2 OS [1]; 10 µM) | cell painting activity score (U-2 OS [1]; 20 µM) | relative cell count (U-2 OS [2]; 0.625 µM) | relative cell count (U-2 OS [2]; 1.25 µM) | relative cell count (U-2 OS [2]; 2.5 µM) | relative cell count (U-2 OS [2]; 5 µM) | relative cell count (U-2 OS [2]; 10 µM) | relative cell count (U-2 OS [2]; 20 µM) | AUC of culture confluence over time (U-2 OS [3]; 5 µM) | AUC of culture confluence over time (U-2 OS [3]; 10 µM) | AUC of culture confluence over time (U-2 OS [3]; 20 µM)
1 | CN1C(=O)[C@]23CC4=CC=C[C@H](O)[C@H]4N2C(=O)[C@@]1(CO)SS3 | 17.6 | 31.2 | 35.5 | 29.6 | 26.9 | 36.5 | 0.197 | 0.0207 | 0.0068 | 0.0047 | 0.00462 | 0.00499 | 7.79 | 7.52 | 8.46
2 | Cc1ccc(C(=O)N(CCCN)[C@@H](c2nc3cc(Cl)ccc3c(=O)n2Cc2ccccc2)C(C)C)cc1 | 11.9 | 10.6 | 13.1 | 13.9 | 28.6 | 17.6 | 0.22 | 0.209 | 0.227 | 0.225 | 0.0173 | 0.0529 | 18.6 | 21.1 | 9.6
3 | CCCCc1c(-c2ccc(OC)cc2)[nH]c2nccnc12 | 4.99 | 3.58 | 6.25 | 6.12 | 8.25 | 8.09 | 1.01 | 0.952 | 0.968 | 0.949 | 0.927 | 0.624 | 53.2 | 47.6 | 52.7
4 | C[C@@H]1Cc2c(Cl)cc(C(=O)N[C@@H](Cc3ccccc3)C(=O)O)c(O)c2C(=O)O1 | 3.03 | 4 | 4.76 | 5.78 | 10.6 | 16.6 | 1 | 0.998 | 0.979 | 0.954 | 0.805 | 0.503 | 40.8 | 30.3 | 17.7
5 | C[n+]1ccc(-c2cc[n+](CCCCCCCCCC[P+](c3ccccc3)(c3ccccc3)c3ccccc3)cc2)cc1.[I-].[I-].[I-] | 3.81 | 4.65 | 5.16 | 5.04 | 3.72 | 4.7 | 0.908 | 0.96 | 1 | 1.01 | 0.965 | 0.969 | 45.2 | 40 | 37.1
